Test results reported in patent US20240180888A1, “C5AR1 INHIBITORS FOR TREATING […] REACTIONS TO TAXANES” (Dompe' Farmaceutici SPA, priority 2021, published 2024).
Entries after “also recorded” stand apart in the source; their conditions may differ.

Experiments:
[1] = tested on: RAW 264.7 mouse macrophages; experiment: Proteome profiler cytokine release assay in RAW 264.7 macrophages; format: cell-based; conditions: stimulus C5a 10 nM or Paclitaxel 10 nM, 24 h; DF3966A 10 μM, anti C5aR Ab 50 nM, Avacopan 10 μM
Method: RAW 264.7 (ATTC TIB-71) mouse macrophages were cultured following manufacturer's instructions using DMEM medium (Euroclone, MI, Italy) supplemented with 10% FBS (non-heat inactivated) (ATCC, USA) at 37° C., in a humidified 95% air-5% CO2 atmosphere and then were seeded at 1*10^4 cells/cm^2.
(§1) After 24 hours, cells were treated with C5a (diluted in medium) (10 nM, R&D, USA), Paclitaxel (diluted in medium) (10 nM, Sigma, USA) in the absence and in the presence of the C5a inhibitor DF3966A (10 μM), and anti C5aR Ab (BioLegend, CA, USA; 50 nM) or Avacopan (10 μM) for 24 hours, then the media was replaced with culture media (5 ml) for 24 h and then collected.
(§2) Conditioned media were centrifugated to remove particulates and assayed immediately. […] The reagents were prepared following manufacturer's protocols (R&D, USA). Briefly, the membranes were incubated with Array Buffer 6 for 1 hour on a rocking platform shaker. The samples were prepared by adding up to 1 ml of Array Buffer 4 in two separated tubes and then 15 microl of reconstituted mouse cytokine detection antibody cocktail (>40 mouse cytokines) to each prepared sample and incubated 1 hour. Then, the Array Buffer 6 was aspirated and replaced with the sample/antibody mixtures and incubated at 4° C. overnight. The following day, membranes were washed 3 times and Streptavidin-HRP (1:2000) was incubated for 30 minutes at room temperature on a rocking platform shaker. The membranes were washed again, and 1 ml of prepared Chemi Reagent mix was placed onto each membrane. Multiple exposure times were acquired using UVITEC digital analyzer (Alliance, Cambridge, UK).
(§3) The positive signals seen in the developed membranes can be identified by placing the transparency overlay template on the array image and aligning it with pairs of reference spots in the three corners of each array (see FIG. 10). […] Pixel densities (average signals of pair of duplicates which represent each cytokine) were analyzed by ImageJ and the average background was subtracted from each spot.
(§4) In details, the profiling of cytokines released (>40 cytokines) from RAW 264.7 and human macrophages challenged with paclitaxel (Sigma-Aldrich; 10 nM) or C5a (R&D Systems, Inc. MN, USA; 10 nM) for 24 h using a proteome profiler assay. […] The experimental assay is explained in example 4.
(§5) For the human macrophages, human XL Cytokine Array kit #Ary022B was used, while for murine macrophages mouse cytokine Array Panel A #Ary006 was used (R&D systems, USA).

[2] = tested on: paclitaxel-induced HSRs in mice; experiment: Prevention of paclitaxel-induced HSRs in vivo by C5aR1 inhibition (Example 8); conditions: 30 mg/kg, os; for increment of serum concentration of complement 5b-9 (SC5b-9) / increment of serum concentration of histamine: pre-treatment, paclitaxel-treated mice, ELISA; for paclitaxel-induced increase of plasma extravasation / paclitaxel-induced increase of vascular leakage: DF3966A 3 h, Avacopan 1 h before paclitaxel 20 mg/kg iv in Cremophor EL
Method: ) was intravenousely administrated at 20 mg/kg (0.1 mL/Kg) dissolved in Cremophor EL (polyoxyl 35 castor oil, Sigma-Aldrich, cod. 238470). […] Cremophor alone (Cremophor) was used as a control. […] Intracardiac injection was done to obtain blood in tubes and leaving it undisturbed at room temperature. Serum was separated from blood cells 30 minutes later by centrifugation (2000×g for 10 min, at 4° C.). Aliquots were prepared and stored at -20° C. ELISA kit was used to evaluate the following marker: histamine and SC5b-9 (Mybiosource, San Diego, USA Cat.No: MBS9361379, MBS725193).

[3] = tested on: human (THP-1) macrophages; experiment: Proteome profiler cytokine release assay in human macrophages; format: cell-based; conditions: human macrophages; stimulus C5a 10 nM or paclitaxel 10 nM, 24 h
Method: as §1, §2, §3, §4, §5

Row | SMILES | effect on C5a- and paclitaxel-induced cytokine release [1] | increment of serum concentration of complement 5b-9 (SC5b-9) [2] | increment of serum concentration of histamine [2] | paclitaxel-induced increase of plasma extravasation [2] | paclitaxel-induced increase of vascular leakage [2] | effect on C5a- and paclitaxel-induced cytokine release [3]
1 | Cc1ccc(NC(=O)[C@H]2CCCN(C(=O)c3c(C)cccc3F)[C@H]2c2ccc(NC3CCCC3)cc2)cc1C(F)(F)F [Avacopan, (2R,3S)-2-[4-(Cyclopentylamino)phenyl]-1-(2-fluoro-6-methylbenzoyl)-N-[4-methyl-3-(trifluoromethyl)phenyl]piperidine-3-carboxamide] | inhibited; also recorded: counteracted | significatively reduced | significatively reduced | abolishing | abolishing | effectively counteracted
2 | C[C@H](c1ccc(Nc2nc(C(F)(F)F)cs2)cc1)c1nn[nH]n1 [DF3966A, 5-[(1R)-1-(4-{[4-(trifluoromethyl)-1,3-thiazol-2-yl]amino}phenyl)ethyl]tetrazol-2-ide] | inhibited; also recorded: counteracted | significatively reduced | significatively reduced | abolishing | abolishing | effectively counteracted
